What all share (test): Kinase profiling
Common to all, as to format: biochemical

One assay addresses T1, PRK1 (Homo sapiens, UniProt Q16512).
T1 construct: purchased ProQinase (Freiburg, Germany)
As to the method:
(§1) The analysis was performed by ProQinase (Freiburg, Germany).

The next assay addresses T2, DMPK (Homo sapiens, UniProt Q09013).
T2 construct: purchased ProQinase (Freiburg, Germany)
T2 sequence (Q09013 1-629): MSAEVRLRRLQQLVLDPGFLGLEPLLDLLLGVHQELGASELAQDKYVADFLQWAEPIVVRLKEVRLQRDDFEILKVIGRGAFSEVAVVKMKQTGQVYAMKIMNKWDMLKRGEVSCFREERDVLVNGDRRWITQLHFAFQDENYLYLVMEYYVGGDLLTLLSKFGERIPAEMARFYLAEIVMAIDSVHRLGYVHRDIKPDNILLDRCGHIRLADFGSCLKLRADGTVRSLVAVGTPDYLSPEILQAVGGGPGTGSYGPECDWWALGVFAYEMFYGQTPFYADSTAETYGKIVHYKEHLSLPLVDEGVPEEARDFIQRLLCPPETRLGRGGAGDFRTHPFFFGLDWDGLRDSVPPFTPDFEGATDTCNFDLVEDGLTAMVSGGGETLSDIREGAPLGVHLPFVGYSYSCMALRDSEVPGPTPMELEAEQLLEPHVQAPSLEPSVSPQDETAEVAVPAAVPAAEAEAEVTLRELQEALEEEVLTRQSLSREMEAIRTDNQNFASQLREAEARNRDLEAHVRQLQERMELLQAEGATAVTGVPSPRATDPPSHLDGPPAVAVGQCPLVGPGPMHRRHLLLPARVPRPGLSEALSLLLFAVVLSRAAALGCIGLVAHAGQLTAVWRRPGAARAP
As to the method:
as §1

The target in the next assay is T3, TAOK2 (Homo sapiens, UniProt Q9UL54).
T3 construct: purchased ProQinase (Freiburg, Germany)
T3 sequence (Q9UL54 1-1235): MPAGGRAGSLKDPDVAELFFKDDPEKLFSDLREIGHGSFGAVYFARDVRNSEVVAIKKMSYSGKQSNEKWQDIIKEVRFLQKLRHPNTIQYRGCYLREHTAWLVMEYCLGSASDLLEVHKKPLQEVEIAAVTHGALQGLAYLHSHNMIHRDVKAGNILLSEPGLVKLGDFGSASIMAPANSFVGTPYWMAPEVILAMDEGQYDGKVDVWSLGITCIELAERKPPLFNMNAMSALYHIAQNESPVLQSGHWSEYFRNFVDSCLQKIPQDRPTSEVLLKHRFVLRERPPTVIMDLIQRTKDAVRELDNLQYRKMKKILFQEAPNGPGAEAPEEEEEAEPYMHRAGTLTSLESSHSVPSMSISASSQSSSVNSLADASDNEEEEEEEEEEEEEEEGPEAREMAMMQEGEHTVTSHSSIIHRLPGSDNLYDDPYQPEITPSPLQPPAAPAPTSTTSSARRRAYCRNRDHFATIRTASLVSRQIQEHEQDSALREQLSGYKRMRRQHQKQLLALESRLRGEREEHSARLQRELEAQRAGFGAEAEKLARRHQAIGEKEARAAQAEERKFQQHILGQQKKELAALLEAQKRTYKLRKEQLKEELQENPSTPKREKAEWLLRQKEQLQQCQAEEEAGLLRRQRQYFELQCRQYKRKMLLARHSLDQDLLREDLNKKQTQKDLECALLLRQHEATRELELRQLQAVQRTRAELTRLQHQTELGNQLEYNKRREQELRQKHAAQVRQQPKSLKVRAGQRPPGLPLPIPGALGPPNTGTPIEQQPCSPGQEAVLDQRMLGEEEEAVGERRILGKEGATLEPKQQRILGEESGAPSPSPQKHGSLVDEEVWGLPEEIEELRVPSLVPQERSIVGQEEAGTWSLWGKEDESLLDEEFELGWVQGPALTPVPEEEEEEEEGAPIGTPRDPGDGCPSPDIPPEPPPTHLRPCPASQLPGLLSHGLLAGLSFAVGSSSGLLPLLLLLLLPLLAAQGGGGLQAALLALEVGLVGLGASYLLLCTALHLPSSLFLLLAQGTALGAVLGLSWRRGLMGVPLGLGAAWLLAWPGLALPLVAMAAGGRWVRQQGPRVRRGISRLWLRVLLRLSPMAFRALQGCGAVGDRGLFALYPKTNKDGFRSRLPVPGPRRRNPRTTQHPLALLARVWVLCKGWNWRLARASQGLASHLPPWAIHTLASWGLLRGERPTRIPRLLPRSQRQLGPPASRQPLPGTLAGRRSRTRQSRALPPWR
As to the method: as §1

The next assay addresses T4, WNK1 (Homo sapiens, UniProt Q9H4A3).
T4 construct: purchased ProQinase (Freiburg, Germany)
As to the method:
as §1

A further assay deals with T5, STK23 (Homo sapiens, UniProt Q9UPE1).
T5 construct: purchased ProQinase (Freiburg, Germany)
As to the method:
as §1

For another assay, the target named is T6, HIPK2 (Homo sapiens, UniProt Q9H2X6).
T6 construct: purchased ProQinase (Freiburg, Germany)
As to the method: as §1

The target in the next assay is T7, EPHA2 (Homo sapiens, UniProt P29317).
T7 construct: purchased ProQinase (Freiburg, Germany)
As to the method:
as §1

The target of another assay is T8, MAP3K1 (Homo sapiens, UniProt Q13233).
T8 construct: purchased ProQinase (Freiburg, Germany)
As to the method:
as §1

The next assay concerns the target T9, ZAP70 (Homo sapiens, UniProt P43403).
T9 construct: purchased ProQinase (Freiburg, Germany)
T9 sequence (P43403 1-619): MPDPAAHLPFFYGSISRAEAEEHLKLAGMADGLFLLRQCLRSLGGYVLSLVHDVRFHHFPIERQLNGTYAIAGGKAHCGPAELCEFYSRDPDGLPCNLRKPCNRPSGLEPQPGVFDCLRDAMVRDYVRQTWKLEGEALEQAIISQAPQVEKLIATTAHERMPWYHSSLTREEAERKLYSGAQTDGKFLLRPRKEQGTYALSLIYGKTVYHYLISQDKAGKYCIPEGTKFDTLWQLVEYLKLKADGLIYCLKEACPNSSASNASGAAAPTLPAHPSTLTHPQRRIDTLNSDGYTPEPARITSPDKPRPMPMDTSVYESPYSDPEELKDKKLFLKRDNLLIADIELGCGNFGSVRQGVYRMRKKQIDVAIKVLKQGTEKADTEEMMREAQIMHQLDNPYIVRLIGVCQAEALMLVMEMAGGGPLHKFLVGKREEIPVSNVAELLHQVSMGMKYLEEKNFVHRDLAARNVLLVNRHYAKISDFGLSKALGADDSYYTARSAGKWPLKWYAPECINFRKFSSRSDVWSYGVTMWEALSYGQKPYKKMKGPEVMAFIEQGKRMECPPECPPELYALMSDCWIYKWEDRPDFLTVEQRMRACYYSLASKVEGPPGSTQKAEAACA
Here is the method:
as §1

The results in this text go back to PMC9030254, “Target Hopping from Protein Kinases to PXR: Identification of Small-Molecule Protein Kinase Inhibitors as Selective Modulators of Pregnane X Receptor from TüKIC Library” (Cells, 2022).

T5 sequence (Q9UPE1 whole entry): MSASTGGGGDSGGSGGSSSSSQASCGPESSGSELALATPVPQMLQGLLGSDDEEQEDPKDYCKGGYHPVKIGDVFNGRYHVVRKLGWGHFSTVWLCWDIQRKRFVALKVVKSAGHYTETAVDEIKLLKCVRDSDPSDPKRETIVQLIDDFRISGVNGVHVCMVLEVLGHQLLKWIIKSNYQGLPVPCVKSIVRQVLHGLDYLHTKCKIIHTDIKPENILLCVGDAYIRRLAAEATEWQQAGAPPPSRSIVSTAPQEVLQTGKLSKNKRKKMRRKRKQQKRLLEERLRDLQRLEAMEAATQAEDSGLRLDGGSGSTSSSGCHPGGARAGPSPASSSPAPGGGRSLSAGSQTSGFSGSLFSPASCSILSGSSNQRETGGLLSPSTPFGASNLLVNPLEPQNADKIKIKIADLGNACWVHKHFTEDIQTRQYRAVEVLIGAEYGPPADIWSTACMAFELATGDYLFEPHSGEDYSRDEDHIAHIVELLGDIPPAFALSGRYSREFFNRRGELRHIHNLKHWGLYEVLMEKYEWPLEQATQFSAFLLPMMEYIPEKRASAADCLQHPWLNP
T6 sequence (Q9H2X6 whole entry): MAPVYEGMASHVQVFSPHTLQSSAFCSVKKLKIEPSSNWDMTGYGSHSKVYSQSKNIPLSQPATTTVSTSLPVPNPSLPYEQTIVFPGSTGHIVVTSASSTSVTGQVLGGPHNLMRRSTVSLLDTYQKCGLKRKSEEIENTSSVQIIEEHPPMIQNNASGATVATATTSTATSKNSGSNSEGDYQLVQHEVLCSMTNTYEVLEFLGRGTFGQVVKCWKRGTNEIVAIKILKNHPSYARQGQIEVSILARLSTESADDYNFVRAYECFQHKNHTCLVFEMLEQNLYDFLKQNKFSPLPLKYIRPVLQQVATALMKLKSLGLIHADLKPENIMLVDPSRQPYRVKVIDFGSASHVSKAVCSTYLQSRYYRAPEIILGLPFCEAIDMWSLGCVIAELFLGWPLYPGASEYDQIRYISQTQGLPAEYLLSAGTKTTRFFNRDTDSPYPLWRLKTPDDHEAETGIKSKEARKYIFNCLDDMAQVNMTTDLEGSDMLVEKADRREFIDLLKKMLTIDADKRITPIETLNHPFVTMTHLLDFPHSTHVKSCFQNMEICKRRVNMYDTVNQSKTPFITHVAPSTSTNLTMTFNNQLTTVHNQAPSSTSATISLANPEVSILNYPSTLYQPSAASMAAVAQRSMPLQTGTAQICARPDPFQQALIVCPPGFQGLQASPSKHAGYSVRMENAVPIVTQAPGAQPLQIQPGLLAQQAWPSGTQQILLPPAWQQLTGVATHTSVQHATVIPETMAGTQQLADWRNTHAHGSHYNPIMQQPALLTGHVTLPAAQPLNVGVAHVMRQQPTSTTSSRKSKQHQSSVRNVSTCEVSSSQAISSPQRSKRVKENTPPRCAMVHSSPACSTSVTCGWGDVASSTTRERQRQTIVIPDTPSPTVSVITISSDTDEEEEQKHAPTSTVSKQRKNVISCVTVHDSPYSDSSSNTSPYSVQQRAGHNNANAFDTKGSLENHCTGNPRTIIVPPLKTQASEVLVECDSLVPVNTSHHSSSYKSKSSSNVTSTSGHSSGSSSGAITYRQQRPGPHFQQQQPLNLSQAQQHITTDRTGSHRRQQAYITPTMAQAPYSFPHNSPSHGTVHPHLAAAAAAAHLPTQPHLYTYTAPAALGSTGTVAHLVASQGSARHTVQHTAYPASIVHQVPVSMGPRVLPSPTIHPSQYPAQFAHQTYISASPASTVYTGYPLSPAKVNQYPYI
T1 sequence (Q16512 whole entry): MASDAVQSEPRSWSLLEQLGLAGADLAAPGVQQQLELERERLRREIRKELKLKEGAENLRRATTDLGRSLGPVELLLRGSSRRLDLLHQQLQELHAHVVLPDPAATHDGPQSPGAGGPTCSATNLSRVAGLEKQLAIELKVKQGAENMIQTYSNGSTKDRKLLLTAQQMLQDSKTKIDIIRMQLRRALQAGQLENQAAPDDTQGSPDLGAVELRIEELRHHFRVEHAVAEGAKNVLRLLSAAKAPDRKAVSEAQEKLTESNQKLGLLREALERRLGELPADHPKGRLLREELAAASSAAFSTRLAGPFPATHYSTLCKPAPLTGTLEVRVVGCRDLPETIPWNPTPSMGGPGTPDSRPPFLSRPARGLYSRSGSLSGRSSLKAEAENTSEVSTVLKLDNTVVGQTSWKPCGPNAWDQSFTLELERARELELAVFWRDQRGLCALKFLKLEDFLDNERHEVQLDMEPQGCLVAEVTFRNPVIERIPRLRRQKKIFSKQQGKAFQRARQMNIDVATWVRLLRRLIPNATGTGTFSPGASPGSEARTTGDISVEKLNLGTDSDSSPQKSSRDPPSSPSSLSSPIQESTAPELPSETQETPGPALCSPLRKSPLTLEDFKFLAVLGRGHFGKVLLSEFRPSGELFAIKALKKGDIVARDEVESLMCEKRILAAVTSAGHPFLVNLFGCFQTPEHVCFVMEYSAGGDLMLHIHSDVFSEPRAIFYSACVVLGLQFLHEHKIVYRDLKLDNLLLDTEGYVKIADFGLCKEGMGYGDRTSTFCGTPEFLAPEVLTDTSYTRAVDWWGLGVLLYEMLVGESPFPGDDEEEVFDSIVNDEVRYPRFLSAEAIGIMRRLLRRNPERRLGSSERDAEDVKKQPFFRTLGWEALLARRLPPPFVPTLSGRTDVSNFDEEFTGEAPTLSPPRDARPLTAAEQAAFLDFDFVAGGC
T4 sequence (Q9H4A3 whole entry): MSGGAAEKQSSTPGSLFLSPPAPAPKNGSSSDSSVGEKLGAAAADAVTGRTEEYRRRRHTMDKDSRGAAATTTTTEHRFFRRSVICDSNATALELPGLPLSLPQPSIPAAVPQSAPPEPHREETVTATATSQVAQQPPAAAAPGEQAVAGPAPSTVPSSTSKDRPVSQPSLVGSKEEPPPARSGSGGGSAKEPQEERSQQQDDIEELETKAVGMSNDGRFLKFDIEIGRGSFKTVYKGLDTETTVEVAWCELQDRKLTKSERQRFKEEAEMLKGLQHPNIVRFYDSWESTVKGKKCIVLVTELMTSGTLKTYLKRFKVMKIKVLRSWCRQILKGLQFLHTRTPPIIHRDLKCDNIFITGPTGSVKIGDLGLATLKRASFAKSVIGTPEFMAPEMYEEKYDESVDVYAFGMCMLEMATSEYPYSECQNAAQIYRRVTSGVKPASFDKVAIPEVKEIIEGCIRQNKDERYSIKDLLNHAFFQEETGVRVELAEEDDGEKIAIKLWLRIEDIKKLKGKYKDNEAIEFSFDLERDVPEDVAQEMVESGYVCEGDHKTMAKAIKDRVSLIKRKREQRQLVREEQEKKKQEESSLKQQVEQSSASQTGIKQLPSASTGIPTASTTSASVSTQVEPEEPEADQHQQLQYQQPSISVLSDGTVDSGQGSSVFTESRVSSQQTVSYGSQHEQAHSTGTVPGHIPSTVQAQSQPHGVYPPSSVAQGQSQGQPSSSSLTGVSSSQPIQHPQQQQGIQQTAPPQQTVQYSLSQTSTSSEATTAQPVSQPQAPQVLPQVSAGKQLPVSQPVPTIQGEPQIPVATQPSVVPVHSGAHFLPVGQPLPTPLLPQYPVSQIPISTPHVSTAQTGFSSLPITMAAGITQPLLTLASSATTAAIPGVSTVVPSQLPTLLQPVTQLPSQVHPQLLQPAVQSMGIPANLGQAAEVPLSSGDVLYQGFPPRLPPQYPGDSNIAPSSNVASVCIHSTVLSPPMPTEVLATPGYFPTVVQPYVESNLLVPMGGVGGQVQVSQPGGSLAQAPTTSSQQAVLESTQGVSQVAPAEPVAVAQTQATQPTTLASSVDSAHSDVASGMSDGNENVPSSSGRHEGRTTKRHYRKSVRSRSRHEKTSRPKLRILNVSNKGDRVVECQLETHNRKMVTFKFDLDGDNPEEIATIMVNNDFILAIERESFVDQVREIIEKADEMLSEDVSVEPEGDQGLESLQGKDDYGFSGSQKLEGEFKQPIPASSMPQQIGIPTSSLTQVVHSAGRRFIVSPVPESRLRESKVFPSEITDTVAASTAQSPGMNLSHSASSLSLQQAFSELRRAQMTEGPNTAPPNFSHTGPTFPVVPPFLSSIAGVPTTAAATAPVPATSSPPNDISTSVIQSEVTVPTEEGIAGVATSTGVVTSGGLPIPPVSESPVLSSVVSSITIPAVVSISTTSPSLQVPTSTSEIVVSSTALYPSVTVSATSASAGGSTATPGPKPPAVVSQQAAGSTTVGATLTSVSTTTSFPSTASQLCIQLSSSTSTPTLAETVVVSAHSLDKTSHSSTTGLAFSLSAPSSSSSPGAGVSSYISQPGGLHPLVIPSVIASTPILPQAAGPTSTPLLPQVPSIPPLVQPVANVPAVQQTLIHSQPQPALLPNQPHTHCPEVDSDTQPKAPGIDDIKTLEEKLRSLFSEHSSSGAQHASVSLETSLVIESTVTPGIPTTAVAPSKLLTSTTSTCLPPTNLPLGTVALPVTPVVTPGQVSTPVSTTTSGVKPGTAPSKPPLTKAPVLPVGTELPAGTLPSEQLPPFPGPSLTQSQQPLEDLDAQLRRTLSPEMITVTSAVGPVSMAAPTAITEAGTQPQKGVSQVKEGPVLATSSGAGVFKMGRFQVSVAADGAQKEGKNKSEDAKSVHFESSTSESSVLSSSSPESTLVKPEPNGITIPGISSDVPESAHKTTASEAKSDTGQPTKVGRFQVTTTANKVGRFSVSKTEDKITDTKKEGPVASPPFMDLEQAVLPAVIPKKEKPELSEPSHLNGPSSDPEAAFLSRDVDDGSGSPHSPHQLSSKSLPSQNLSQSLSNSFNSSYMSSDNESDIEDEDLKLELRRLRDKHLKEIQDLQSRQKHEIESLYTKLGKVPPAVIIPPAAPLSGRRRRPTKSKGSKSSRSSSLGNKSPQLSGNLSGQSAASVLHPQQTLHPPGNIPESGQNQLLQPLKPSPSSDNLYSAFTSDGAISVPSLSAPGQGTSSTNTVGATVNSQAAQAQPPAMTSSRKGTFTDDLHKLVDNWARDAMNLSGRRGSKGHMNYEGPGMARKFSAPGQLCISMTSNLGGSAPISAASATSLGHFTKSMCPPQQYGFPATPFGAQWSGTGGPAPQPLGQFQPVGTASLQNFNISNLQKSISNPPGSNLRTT

`O=C(Cc1ccccc1)Nc1ccc(F)c(Nc2ccc3c(c2)CCCCC3=O)c1` [Compound 100]: the Residual activity is listed as 101 % of control on PRK1 (1.0E-05 M); 112 % of control on PRK1 (1.0E-06 M); 100 % of control at DMPK (1.0E-05 M); 101 % of control at DMPK (1.0E-06 M); 97 % of control on TAOK2 (1.0E-05 M); 90 % of control at TAOK2 (1.0E-06 M). The Residual activity on WNK1 (1.0E-05 M) was 97 % of control; on WNK1 (1.0E-06 M), 99 % of control; at STK23 (1.0E-05 M) it was 79 % of control; at STK23 (1.0E-06 M), 89 % of control; at HIPK2 (1.0E-05 M) it was 101 % of control; on HIPK2 (1.0E-06 M) it was 97 % of control. Also, the Residual activity is 94 % of control at EPHA2 (1.0E-05 M); 116 % of control at EPHA2 (1.0E-06 M); 83 % of control at MAP3K1 (1.0E-05 M); 96 % of control on MAP3K1 (1.0E-06 M); 103 % of control on ZAP70 (1.0E-05 M); 118 % of control on ZAP70 (1.0E-06 M).
As for `O=C(Nc1ccc(F)c(Nc2ccc3c(c2)CCCCC3=O)c1)c1cccc(F)c1` [Compound 109], the Residual activity on PRK1 (1.0E-05 M) is listed as 101 % of control; at PRK1 (1.0E-06 M) it was 94 % of control; on DMPK (1.0E-05 M), 94 % of control; at DMPK (1.0E-06 M), 99 % of control; on TAOK2 (1.0E-05 M) it was 108 % of control; on TAOK2 (1.0E-06 M), 104 % of control. Also, the Residual activity is 94 % of control on WNK1 (1.0E-05 M); 93 % of control on WNK1 (1.0E-06 M); 76 % of control on STK23 (1.0E-05 M); 78 % of control on STK23 (1.0E-06 M); 95 % of control at HIPK2 (1.0E-05 M); 90 % of control at HIPK2 (1.0E-06 M). For the same molecule, the Residual activity is on record as 107 % of control at EPHA2 (1.0E-05 M); 105 % of control at EPHA2 (1.0E-06 M); 93 % of control on MAP3K1 (1.0E-05 M); 96 % of control on MAP3K1 (1.0E-06 M); 91 % of control at ZAP70 (1.0E-05 M); 114 % of control on ZAP70 (1.0E-06 M).
